Data as given in patent US20120028917A1, “Use Of N-(4-((3-(2-Amino-4-Pyrimidinyl)-2-Pyridinyl)Oxy)Phenyl)-4-(4-Methyl-2-Thienyl)-1-Phthalazinamine In The Treatment Of Antimitotic Agent Resistant Cancer” (Amgen Inc., priority 2009, published 2012).

Experiments:
Test in all cases: Antiproliferative assay (ArrayScan VTi)
Type in all cases: cell-based
[1] = test system: 769P; conditions: Homo sapiens; 769P* (Kidney), paclitaxel-resistant; 24 h treatment, then 48 h without compound
Description: (§1) Tumor cells were seeded in a Packard View 96-well plate in 100 μL of appropriate complete media at a density of 3000 or 5000 cells/well depending on the cell line growth kinetics (broadly defined as slow vs. fast). All dilutions were performed using Biomek FX workstation. The next day cells were treated with AMG 900 (11-point dose range 0.156 to 0.0003 μM) with a final DMSO concentration of 0.12% in media. After 24 hours, the media containing compound was removed and the cells were washed with complete media. The cells were then incubated in 100 μL of fresh complete media (without compound) for 48 hours. After 48 hours, the cells were fixed by adding 100 μL of fixation buffer to 100 μL of complete media. The cells were incubated at room temperature for 10 minutes. The fixation buffer was aspirated and the cells were then permeabilized in 100 μL wash buffer for 30 minutes at room temperature followed by the addition of 100 μL of DNA stain buffer and incubated at room temperature for 30 minutes in the dark. Next, the cells were washed with 100 μL of wash buffer and stored in 100 μL 1×PBS at 4 degrees Celsius until analysis. Cellular data was attained by scanning the 96-well plates on an ArrayScan VTi imaging system (Cellomics). Quantification of individual cell nuclear area and intensity was performed based on Hoechst 33342 DNA dye fluorescence. A threshold on the nuclear area based on the DMSO-treated control well was set to quantify the number of normal size nuclei from nuclear debris and polyploidy cells. This threshold value was applied to enumerate the number of normal nuclei in six image fields/well using a magnification of 10×. The dose-concentration curves and EC50 values were calculated using a 4-parameter equation.

[2] = test system: A498; conditions: Homo sapiens; A498 (Kidney); 24 h treatment, then 48 h without compound
Description: as §1

[3] = test system: A549; conditions: Homo sapiens; A549 (Lung); 24 h treatment, then 48 h without compound
Description: as §1

[4] = test system: BT549; conditions: Homo sapiens, BT-549; BT549 (Breast); 24 h treatment, then 48 h without compound
Description: as §1

[5] = test system: CAKI-1; conditions: Homo sapiens; CAKI-1 (Kidney); 24 h treatment, then 48 h without compound
Description: as §1

[6] = test system: CAL51; conditions: Homo sapiens, CAL-51; CAL51 (Breast); 24 h treatment, then 48 h without compound
Description: as §1

[7] = test system: DU145; conditions: Homo sapiens, DU-145; DU145 (Prostate); 24 h treatment, then 48 h without compound
Description: as §1

[8] = test system: HCT 116_JH_p21+/+; conditions: Homo sapiens; HCT 116_JH_p21+/+ (Colon); 24 h treatment, then 48 h without compound
Description: as §1

[9] = test system: HCT 116_JH_p21−/−; conditions: Homo sapiens; HCT 116_JH_p21−/− (Colon); 24 h treatment, then 48 h without compound
Description: as §1

[10] = test system: HCT15; conditions: Homo sapiens, HCT-15; HCT15* (Colon), paclitaxel-resistant; 24 h treatment, then 48 h without compound
Description: as §1

[11] = test system: HOP-62; conditions: Homo sapiens; HOP-62 (Lung); 24 h treatment, then 48 h without compound
Description: as §1

[12] = test system: HOP-92; conditions: Homo sapiens; HOP-92 (Lung); 24 h treatment, then 48 h without compound
Description: as §1

[13] = test system: HT29; conditions: Homo sapiens, HT-29; HT29 (Colon); 24 h treatment, then 48 h without compound
Description: as §1

[14] = test system: MCF7-p53+; conditions: Homo sapiens; MCF7-p53+ (Breast); 24 h treatment, then 48 h without compound
Description: as §1

[15] = test system: MCF7-p53−; conditions: Homo sapiens; MCF7-p53− (Breast); 24 h treatment, then 48 h without compound
Description: as §1

[16] = test system: MDA-MB-231; conditions: Homo sapiens; MDA-MB-231 (Breast); 24 h treatment, then 48 h without compound
Description: as §1

[17] = test system: MES-SA Dx5; conditions: Homo sapiens; MES-SA Dx5* (Uterine), paclitaxel-resistant; 24 h treatment, then 48 h without compound
Description: as §1

[18] = test system: NCI-H460; conditions: Homo sapiens; NCI-H460 (Lung); 24 h treatment, then 48 h without compound
Description: as §1

[19] = test system: PC3; conditions: Homo sapiens, PC-3; PC3 (Prostate); 24 h treatment, then 48 h without compound
Description: as §1

[20] = test system: SK-HEP-1; conditions: Homo sapiens, SK-HEP1; SK-HEP-1 (Liver); 24 h treatment, then 48 h without compound
Description: as §1

[21] = test system: SK-MEL-2; conditions: Homo sapiens; SK-MEL-2 (Skin); 24 h treatment, then 48 h without compound
Description: as §1

[22] = test system: SK-OV-3; conditions: Homo sapiens; SK-OV-3 (Ovarian); 24 h treatment, then 48 h without compound
Description: as §1

[23] = test system: SNU449; conditions: Homo sapiens, SNU-449; SNU449* (Liver), paclitaxel-resistant; 24 h treatment, then 48 h without compound
Description: as §1

[24] = test system: SW620; conditions: Homo sapiens, SW-620; SW620 (Colon); 24 h treatment, then 48 h without compound
Description: as §1

[25] = test system: T47D; conditions: Homo sapiens; T47D (Breast); 24 h treatment, then 48 h without compound
Description: as §1

EC50 [3]: 1 nM
EC50 [4]: 4 nM
EC50 [7]: 2 nM
EC50 [8]: 1 nM
EC50 [9]: 1 nM
EC50 [10]: 2 nM
EC50 [13]: 5 nM
EC50 [14]: 1 nM
EC50 [15]: 3 nM
EC50 [16]: 2 nM
EC50 [18]: 1 nM
EC50 [19]: 2 nM
EC50 [20]: 1 nM
EC50 [21]: 2 nM
EC50 [22]: 2 nM
EC50 [23]: 2 nM
EC50 [24]: 2 nM
EC50 [25]: 5 nM
SMILES: Cc1csc(-c2nnc(Nc3ccc(Oc4ncccc4-c4ccnc(N)n4)cc3)c3ccccc23)c1 [AMG 900, N-(4-((3-(2-amino-4-pyrimidinyl)-2-pyridinyl)oxy)phenyl)-4-(4-methyl-2-thienyl)-1-phthalazinamine]
EC50 [1]: 2 nM
EC50 [2]: 1 nM
EC50 [5]: 1 nM
EC50 [6]: 2 nM
EC50 [11]: 2 nM
EC50 [12]: 2 nM
EC50 [17]: 1 nM
